1 compound from article PMC10518255, “A first-in-class pan-lysyl oxidase inhibitor impairs stromal remodeling and enhances gemcitabine response and survival in pancreatic cancer” (Nature Cancer, 2023) can be followed below.

Series [1] concerns the target all lysyl oxidase family members. Kind of series: Lysyl oxidase enzymatic activity, fluorescence-based assay, IC50 range over the family. Format: biochemical, human. Particulars: range over the five family members; read-out: IC50 values against all lysyl oxidase family members. The procedure: In characterizing PXS-5505, the half-maximum inhibitory concentration (IC50) values for each of the lysyl oxidase family members were determined by measuring enzymatic activity using a fluorescence-based assay.

In another series the test system is cytochrome P450 enzymes. Put plainly: Cytochrome P450 inhibition.
The next series is described as follows: Microsomal stability. Format: in vitro ADME. Particulars: microsomes; In vitro (human).
Series [2] addresses T1, bovine aorta extracted LOX (Bos taurus, UniProt P33072).
T1 construct: performed in an amplex red assay using bovine aorta extracted LOX; from tissue; host or cells: bovine aorta
Kind of series: Substrate competition assay versus putrescine dihydrochloride, amplex red (Extended Data Fig. 3b). Format: biochemical. The text has this:
Similar to other fluoroallylamine-based amine oxidase inhibitors, the mode of inhibition is assumed to be a two-step mechanism (Fig. 2c), with PXS-5505 reacting with the unique LTQ cofactor found within the active site. The fluoroallylamine facilitates the formation of a covalent, irreversible bond. […] Furthermore, in jump dilution experiments, there is no significant recovery of activity following rapid dilution (LOXL1 (5 ± 5% recovery, n = 4), LOXL2 (7 ± 1.2% recovery, n = 3) and LOXL3 (11 ± 2% recovery, n = 3)).
Data presented as mean values +/− SD. f. […] Data presented as mean values +/− SD. […] Data presented as mean values +/− SD. […] Data presented as mean values +/− SD. Ordinary one-way ANOVA for multiple comparison test performed. Source data

The target in the next series is T2, DAO (Homo sapiens, UniProt P19801).
T2 sequence (P19801 20-751): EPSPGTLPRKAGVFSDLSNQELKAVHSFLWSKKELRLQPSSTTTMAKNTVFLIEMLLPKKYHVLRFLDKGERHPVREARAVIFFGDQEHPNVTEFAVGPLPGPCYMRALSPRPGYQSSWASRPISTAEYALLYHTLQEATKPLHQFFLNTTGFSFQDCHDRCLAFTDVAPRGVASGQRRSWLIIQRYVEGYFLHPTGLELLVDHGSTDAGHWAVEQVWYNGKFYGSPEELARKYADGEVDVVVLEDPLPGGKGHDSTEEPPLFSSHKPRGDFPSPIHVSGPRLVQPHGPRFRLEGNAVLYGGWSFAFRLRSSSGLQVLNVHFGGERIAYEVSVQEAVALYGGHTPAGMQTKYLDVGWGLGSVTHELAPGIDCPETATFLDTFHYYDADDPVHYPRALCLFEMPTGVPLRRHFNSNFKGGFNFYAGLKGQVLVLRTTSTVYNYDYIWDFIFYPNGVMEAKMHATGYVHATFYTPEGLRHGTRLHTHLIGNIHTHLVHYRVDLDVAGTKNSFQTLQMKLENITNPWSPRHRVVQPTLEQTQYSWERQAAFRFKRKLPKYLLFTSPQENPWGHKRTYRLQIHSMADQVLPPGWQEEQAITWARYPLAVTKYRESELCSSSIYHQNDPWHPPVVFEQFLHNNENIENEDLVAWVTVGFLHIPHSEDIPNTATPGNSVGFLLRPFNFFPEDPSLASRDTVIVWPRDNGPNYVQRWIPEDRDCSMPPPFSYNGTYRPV
Kind of series: IC50 determination against other human amine oxidases. It counts as biochemical. The text has this: (§1) Data are presented as mean ± s.d. […] Data presented as mean ± s.d. […] Source data TEXT PRINTED IN THE PICTURE: (b) PXS-5505: Recombinant DAO IC50 (nM): >30,000; Recombinant SSAO/VAP1 IC50 (nM): >30,000; Recombinant MAO-A IC50 (nM): >30,000; Recombinant MAO-B IC50 (nM): >30,000 | (f) PXS-5505: Fibroblast LOX IC50 (nM): 4,930; Recombinant LOXL-1 IC50 (nM): 1,590; Recombinant LOXL-2 IC50 (nM): 570; Recombinant LOXL-3 IC50 (nM): 1,800; Recombinant LOXL-4 IC50 (nM): 190

Another series deals with Recombinant MAO-A (Homo sapiens, UniProt P21397). The description is as above. Format: biochemical.
Excerpt: as §1

The next series deals with Recombinant MAO-B (Homo sapiens, UniProt P27338). The description is as above. It counts as biochemical.
Excerpt: as §1

The target of another series is Recombinant SSAO/VAP1 (Homo sapiens, UniProt Q16853). Described as above. It counts as biochemical.
Excerpt: as §1

Sequence of Recombinant SSAO/VAP1 (Q16853 whole entry): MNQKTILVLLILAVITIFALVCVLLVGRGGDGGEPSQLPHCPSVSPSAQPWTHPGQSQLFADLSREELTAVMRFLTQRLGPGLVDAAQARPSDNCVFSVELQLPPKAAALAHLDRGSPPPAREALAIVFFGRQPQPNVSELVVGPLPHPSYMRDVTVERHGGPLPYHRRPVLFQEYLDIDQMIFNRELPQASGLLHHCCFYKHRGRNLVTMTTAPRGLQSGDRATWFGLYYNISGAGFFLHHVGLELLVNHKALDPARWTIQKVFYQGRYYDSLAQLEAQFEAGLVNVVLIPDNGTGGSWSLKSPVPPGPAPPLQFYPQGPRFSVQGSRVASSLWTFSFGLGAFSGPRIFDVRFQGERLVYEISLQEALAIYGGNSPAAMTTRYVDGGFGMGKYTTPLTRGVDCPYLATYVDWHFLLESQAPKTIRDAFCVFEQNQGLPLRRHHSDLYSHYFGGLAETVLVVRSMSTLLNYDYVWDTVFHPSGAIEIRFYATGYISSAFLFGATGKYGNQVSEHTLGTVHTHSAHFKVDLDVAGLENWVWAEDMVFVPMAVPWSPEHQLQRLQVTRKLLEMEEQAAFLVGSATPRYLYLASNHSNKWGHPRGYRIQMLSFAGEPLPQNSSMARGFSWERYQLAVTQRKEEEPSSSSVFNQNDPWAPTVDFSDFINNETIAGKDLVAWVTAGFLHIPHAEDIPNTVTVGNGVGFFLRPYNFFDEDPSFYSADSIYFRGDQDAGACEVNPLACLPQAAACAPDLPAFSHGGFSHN
T1 sequence (P33072 170-418): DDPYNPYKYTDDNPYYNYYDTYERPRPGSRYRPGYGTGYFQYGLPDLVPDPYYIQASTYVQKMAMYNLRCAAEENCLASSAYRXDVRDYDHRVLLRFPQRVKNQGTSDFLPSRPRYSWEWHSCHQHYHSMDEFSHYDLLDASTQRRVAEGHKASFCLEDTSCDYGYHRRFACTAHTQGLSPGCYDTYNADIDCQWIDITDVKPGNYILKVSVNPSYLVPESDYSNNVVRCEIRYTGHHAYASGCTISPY
Sequence of Recombinant MAO-A (P21397 whole entry): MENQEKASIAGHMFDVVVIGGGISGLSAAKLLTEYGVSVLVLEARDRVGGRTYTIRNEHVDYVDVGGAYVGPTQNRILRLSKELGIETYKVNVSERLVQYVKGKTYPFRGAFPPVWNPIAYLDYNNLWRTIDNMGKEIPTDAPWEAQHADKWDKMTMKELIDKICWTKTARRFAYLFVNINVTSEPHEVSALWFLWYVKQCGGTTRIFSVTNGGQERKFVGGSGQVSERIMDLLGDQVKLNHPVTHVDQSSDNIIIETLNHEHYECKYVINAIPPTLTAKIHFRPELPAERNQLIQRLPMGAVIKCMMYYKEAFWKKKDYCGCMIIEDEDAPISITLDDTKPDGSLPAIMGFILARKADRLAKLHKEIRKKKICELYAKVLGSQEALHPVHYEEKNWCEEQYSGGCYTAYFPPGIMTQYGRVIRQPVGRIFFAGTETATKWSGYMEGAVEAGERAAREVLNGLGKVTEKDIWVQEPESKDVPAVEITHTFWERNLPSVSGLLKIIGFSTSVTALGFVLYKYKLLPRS
Sequence of Recombinant MAO-B (P27338 whole entry): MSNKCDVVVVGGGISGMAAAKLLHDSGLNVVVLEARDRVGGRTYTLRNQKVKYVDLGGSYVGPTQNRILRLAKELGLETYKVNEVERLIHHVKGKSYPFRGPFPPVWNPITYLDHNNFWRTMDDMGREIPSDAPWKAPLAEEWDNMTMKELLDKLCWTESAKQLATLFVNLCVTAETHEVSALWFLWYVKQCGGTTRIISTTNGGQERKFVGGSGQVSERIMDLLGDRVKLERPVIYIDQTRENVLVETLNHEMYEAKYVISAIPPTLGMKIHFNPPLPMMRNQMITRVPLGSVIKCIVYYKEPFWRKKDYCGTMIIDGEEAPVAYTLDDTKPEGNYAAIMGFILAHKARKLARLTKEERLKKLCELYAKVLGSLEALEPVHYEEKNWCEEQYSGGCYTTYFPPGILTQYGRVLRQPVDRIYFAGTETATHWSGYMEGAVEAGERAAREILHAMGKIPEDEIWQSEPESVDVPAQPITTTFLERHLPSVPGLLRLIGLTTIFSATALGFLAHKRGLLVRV

A word on the IC50: it is the concentration that gives 50% inhibition. Broadly, the fraction remaining is what is left of the initial amount, in per cent. For the compound `Cl.Cl.NC/C=C(\F)CS(=O)(=O)c1cccc2cccnc12.O` [PXS-5505, (Z)-3-fluoro-4-(quinolin-8-ylsulfonyl)but-2-en-1-amine dihydrochloride monohydrate], the IC50 in series [1] was 200 to 5000 nM; on DAO, greater than 30 µM; on Recombinant MAO-A, greater than 30 µM; at Recombinant MAO-B it was greater than 30 µM; at Recombinant SSAO/VAP1, greater than 30 µM. The “inhibition of cytochrome P450 enzymes” value with cytochrome P450 enzymes was “does not inhibit”. Besides, the fraction remaining at 1 h in the series “Microsomal stability” came to 97%. The substrate competition entry in series [2] is “substrate competition”.
